Test results as given in ChEMBL document CHEMBL1649274, “Mutational upregulation of a resistance-nodulation-cell division-type multidrug efflux pump, SdeAB, upon exposure to a biocide, cetylpyridinium chloride, and antibiotic resistance in Serratia marcescens” (Antimicrob Agents Chemother, 2009).
≈ marks a conversion by molar mass, not a printed value.

Legend:
[1] = test system: Serratia marcescens; experiment: Antimicrobial activity against cetylpyridinium chloride-sensitive Serratia marcescens 71 by broth dilution method; assay type: functional
[2] = test system: Serratia marcescens; experiment: Antimicrobial activity against cetylpyridinium chloride-resistant Serratia marcescens 01 by broth dilution method; assay type: functional
[3] = test system: Serratia marcescens; experiment: microbe, parasite or virus in culture; assay type: functional; conditions: ATCC 13880
Description: (§1) Antimicrobial activity against Serratia marcescens ATCC 13880 by broth dilution method

[4] = test system: Serratia marcescens; experiment: Antimicrobial activity against cetylpyridinium chloride-sensitive Serratia marcescens 79 by broth dilution method; assay type: functional
[5] = test system: Serratia marcescens; experiment: Antimicrobial activity against cetylpyridinium chloride-resistant Serratia marcescens 011 by broth dilution method; assay type: functional
[6] = test system: Serratia marcescens; experiment: Antimicrobial activity against cetylpyridinium chloride-resistant Serratia marcescens HMS011 by broth dilution method; assay type: functional
[7] = test system: Serratia marcescens; experiment: Antimicrobial activity against cetylpyridinium chloride-sensitive Serratia marcescens 79 harboring plasmid STV29 expressing hasF gene by broth dilution method; assay type: functional
[8] = test system: Serratia marcescens; experiment: Antimicrobial activity against cetylpyridinium chloride-sensitive Serratia marcescens 71 harboring plasmid STV29 by broth dilution method; assay type: functional
[9] = test system: Serratia marcescens; experiment: Antimicrobial activity against cetylpyridinium chloride-resistant Serratia marcescens 011 harboring plasmid STV28 expressing sdeB gene by broth dilution method; assay type: functional
[10] = test system: Serratia marcescens; experiment: Antimicrobial activity against cetylpyridinium chloride-sensitive Serratia marcescens 71 harboring plasmid STV29 expressing hasF gene by broth dilution method; assay type: functional
[11] = test system: Serratia marcescens; experiment: Antimicrobial activity against cetylpyridinium chloride-sensitive Serratia marcescens 79 harboring plasmid STV29 by broth dilution method; assay type: functional
[12] = test system: Serratia marcescens; experiment: Antimicrobial activity against cetylpyridinium chloride-resistant Serratia marcescens 01 harboring plasmid STV29 by broth dilution method; assay type: functional
[13] = test system: Serratia marcescens; experiment: Antimicrobial activity against cetylpyridinium chloride-resistant Serratia marcescens HMS011 harboring plasmid STV28 expressing sdeB gene by broth dilution method; assay type: functional
[14] = test system: Serratia marcescens; experiment: Antimicrobial activity against Serratia marcescens ATCC 13880 harboring plasmid STV29 by broth dilution method; assay type: functional
[15] = test system: Serratia marcescens; experiment: Cellular uptake at Serratia marcescens ATCC 13880 at 50 ug/ml after 60 mins by spectrofluorometry; assay type: ADME, organism-based; conditions: in vivo, 1 h
[16] = test system: Serratia marcescens; experiment: Cellular uptake at cetylpyridinium chloride-resistant Serratia marcescens 01 at 50 ug/ml after 60 mins by spectrofluorometry; assay type: ADME, organism-based; conditions: in vivo, 1 h
[17] = test system: Serratia marcescens; experiment: Cellular uptake at cetylpyridinium chloride-resistant Serratia marcescens 01 at 50 ug/ml after 60 mins by spectrofluorometry in presence of […] proteon conductor CCCP; assay type: ADME, organism-based; conditions: in vivo, 1 h
[18] = test system: Serratia marcescens; experiment: Cellular uptake at Serratia marcescens ATCC 13880 at 50 ug/ml after 60 mins by spectrofluorometry in presence of […] proteon conductor CCCP; assay type: ADME, organism-based; conditions: in vivo, 1 h
[19] = test system: Serratia marcescens; conditions: 79
[20] = test system: Serratia marcescens; conditions: 01
[21] = test system: Serratia marcescens; conditions: ATCC 13880
Description: as §1

[22] = test system: Serratia marcescens; conditions: 71

Molecule | MIC [1] | MIC [2] | MIC [3] | MIC [4] | MIC [5] | MIC [6] | MIC [7] | MIC [8] | MIC [9] | MIC [10] | MIC [11] | MIC [12] | MIC [13] | MIC [14] | also measured
N=C(NCCCCCCNC(=N)NC(=N)Nc1ccc(Cl)cc1)NC(=N)Nc1ccc(Cl)cc1.O=C(O)[C@H](O)[C@@H](O)[C@H](O)[C@H](O)CO | 3.13 µg/mL | 100 µg/mL | 25 µg/mL | 3.13 µg/mL | – | – | – | – | – | – | – | – | – | – | –
CCCCCCCCCCCC[n+]1ccccc1.[I-] | 12.5 µg/mL | 100 µg/mL | 100 µg/mL | 6.25 µg/mL | – | – | – | – | – | – | – | – | – | – | –
CC1(C)S[C@@H]2[C@H](NC(=O)[C@H](N)c3ccccc3)C(=O)N2[C@H]1C(=O)O [AMPICILLIN] | 6.25 µg/mL (≈ 17.9 µM) | 6.25 µg/mL (≈ 17.9 µM) | 100 µg/mL (≈ 286 µM) | 6.25 µg/mL (≈ 17.9 µM) | – | – | – | – | – | – | – | – | – | – | –
CC1(C)S[C@@H]2[C@H](NC(=O)C(C(=O)O)c3ccccc3)C(=O)N2[C@H]1C(=O)O (stereo not given in full) [CARBENICILLIN] | 3.13 µg/mL (≈ 8.27 µM) | 3.13 µg/mL (≈ 8.27 µM) | 6.25 µg/mL (≈ 16.5 µM) | 3.13 µg/mL (≈ 8.27 µM) | 3.13 µg/mL (≈ 8.27 µM) | 6.25 µg/mL (≈ 16.5 µM) | 3.13 µg/mL (≈ 8.27 µM) | 3.13 µg/mL (≈ 8.27 µM) | 3.13 µg/mL (≈ 8.27 µM) | 3.13 µg/mL (≈ 8.27 µM) | 3.13 µg/mL (≈ 8.27 µM) | 3.13 µg/mL (≈ 8.27 µM) | 6.25 µg/mL (≈ 16.5 µM) | 6.25 µg/mL (≈ 16.5 µM) | –
O=C(N[C@H](CO)[C@H](O)c1ccc([N+](=O)[O-])cc1)C(Cl)Cl [CHLORAMPHENICOL] | 3.13 µg/mL (≈ 9.69 µM) | 100 µg/mL (≈ 309 µM) | 12.5 µg/mL (≈ 38.7 µM) | 3.13 µg/mL (≈ 9.69 µM) | 25 µg/mL (≈ 77.4 µM) | 12.5 µg/mL (≈ 38.7 µM) | > 400 µg/mL | > 400 µg/mL | > 400 µg/mL | > 400 µg/mL | > 400 µg/mL | > 400 µg/mL | > 400 µg/mL | > 400 µg/mL | –
CCn1cc(C(=O)O)c(=O)c2cc(F)c(N3CCNCC3)nc21 [ENOXACIN] | 0.1 µg/mL (≈ 0.312 µM) | 3.13 µg/mL (≈ 9.77 µM) | 0.2 µg/mL (≈ 0.624 µM) | 0.1 µg/mL (≈ 0.312 µM) | – | – | – | – | – | – | – | – | – | – | –
NC[C@H]1O[C@H](O[C@H]2[C@H](O)[C@@H](O[C@H]3O[C@H](CO)[C@@H](O)[C@H](N)[C@H]3O)[C@H](N)C[C@@H]2N)[C@H](O)[C@@H](O)[C@@H]1O [KANAMYCIN] | > 400 µg/mL | 1.56 µg/mL (≈ 3.22 µM) | 1.56 µg/mL (≈ 3.22 µM) | > 400 µg/mL | 1.56 µg/mL (≈ 3.22 µM) | 1.56 µg/mL (≈ 3.22 µM) | – | – | 1.56 µg/mL (≈ 3.22 µM) | – | – | 1.56 µg/mL (≈ 3.22 µM) | 1.56 µg/mL (≈ 3.22 µM) | 1.56 µg/mL (≈ 3.22 µM) | –
CCn1cc(C(=O)O)c(=O)c2cc(F)c(N3CCNC(C)C3)c(F)c21 (stereo not given) [LOMEFLOXACIN] | 0.05 µg/mL (≈ 0.142 µM) | 1.56 µg/mL (≈ 4.44 µM) | 0.2 µg/mL (≈ 0.569 µM) | 0.05 µg/mL (≈ 0.142 µM) | 0.78 µg/mL (≈ 2.22 µM) | 0.2 µg/mL (≈ 0.569 µM) | 1.56 µg/mL (≈ 4.44 µM) | 0.05 µg/mL (≈ 0.142 µM) | 1.56 µg/mL (≈ 4.44 µM) | 1.56 µg/mL (≈ 4.44 µM) | 0.05 µg/mL (≈ 0.142 µM) | 1.56 µg/mL (≈ 4.44 µM) | 0.2 µg/mL (≈ 0.569 µM) | 0.2 µg/mL (≈ 0.569 µM) | –
CCn1cc(C(=O)O)c(=O)c2ccc(C)nc21 [NALIDIXIC ACID] | 12.5 µg/mL (≈ 53.8 µM) | 12.5 µg/mL (≈ 53.8 µM) | 12.5 µg/mL (≈ 53.8 µM) | 12.5 µg/mL (≈ 53.8 µM) | – | – | – | – | – | – | – | – | – | – | –
CCn1cc(C(=O)O)c(=O)c2cc(F)c(N3CCNCC3)cc21 [NORFLOXACIN] | 0.05 µg/mL (≈ 0.157 µM) | 3.13 µg/mL (≈ 9.8 µM) | 0.2 µg/mL (≈ 0.626 µM) | 0.05 µg/mL (≈ 0.157 µM) | 0.78 µg/mL (≈ 2.44 µM) | 0.2 µg/mL (≈ 0.626 µM) | 3.13 µg/mL (≈ 9.8 µM) | 0.05 µg/mL (≈ 0.157 µM) | 3.13 µg/mL (≈ 9.8 µM) | 3.13 µg/mL (≈ 9.8 µM) | 0.05 µg/mL (≈ 0.157 µM) | 3.13 µg/mL (≈ 9.8 µM) | 0.2 µg/mL (≈ 0.626 µM) | 0.2 µg/mL (≈ 0.626 µM) | Drug uptake [15]: 60 a.u.; Drug uptake [16]: 10 a.u.; Drug uptake [17]: 250 a.u.; Drug uptake [18]: 250 a.u.
CC1COc2c(N3CCN(C)CC3)c(F)cc3c(=O)c(C(=O)O)cn1c23 (stereo not given) [OFLOXACIN] | 0.05 µg/mL (≈ 0.138 µM) | 3.13 µg/mL (≈ 8.66 µM) | 0.1 µg/mL (≈ 0.277 µM) | 0.05 µg/mL (≈ 0.138 µM) | – | – | – | – | – | – | – | – | – | – | –
CCn1cc(C(=O)O)c(=O)c2cnc(N3CCNCC3)nc21 [PIPEMIDIC ACID] | 0.78 µg/mL (≈ 2.57 µM) | 25 µg/mL (≈ 82.4 µM) | 3.13 µg/mL (≈ 10.3 µM) | 0.78 µg/mL (≈ 2.57 µM) | 6.25 µg/mL (≈ 20.6 µM) | 3.13 µg/mL (≈ 10.3 µM) | 12.5 µg/mL (≈ 41.2 µM) | 0.78 µg/mL (≈ 2.57 µM) | 25 µg/mL (≈ 82.4 µM) | 12.5 µg/mL (≈ 41.2 µM) | 0.78 µg/mL (≈ 2.57 µM) | 25 µg/mL (≈ 82.4 µM) | 3.13 µg/mL (≈ 10.3 µM) | 3.13 µg/mL (≈ 10.3 µM) | –
CN[C@@H]1[C@H](O[C@H]2[C@H](O[C@H]3[C@H](O)[C@@H](O)[C@H](N=C(N)N)[C@@H](O)[C@@H]3N=C(N)N)O[C@@H](C)[C@]2(O)C=O)O[C@@H](CO)[C@H](O)[C@H]1O [STREPTOMYCIN] | 1.56 µg/mL (≈ 2.68 µM) | 3.13 µg/mL (≈ 5.38 µM) | 3.13 µg/mL (≈ 5.38 µM) | 1.56 µg/mL (≈ 2.68 µM) | – | – | – | – | – | – | – | – | – | – | –
CN(C)[C@@H]1C(O)=C(C(N)=O)C(=O)[C@@]2(O)C(O)=C3C(=O)c4c(O)cccc4[C@@](C)(O)[C@H]3C[C@@H]12 [TETRACYCLINE] | 3.13 µg/mL (≈ 7.04 µM) | 100 µg/mL (≈ 225 µM) | 50 µg/mL (≈ 113 µM) | 3.13 µg/mL (≈ 7.04 µM) | 100 µg/mL (≈ 225 µM) | 50 µg/mL (≈ 113 µM) | 50 µg/mL (≈ 113 µM) | 3.13 µg/mL (≈ 7.04 µM) | 100 µg/mL (≈ 225 µM) | 50 µg/mL (≈ 113 µM) | 3.13 µg/mL (≈ 7.04 µM) | 100 µg/mL (≈ 225 µM) | 50 µg/mL (≈ 113 µM) | 50 µg/mL (≈ 113 µM) | –
GENTAMICIN | – | – | – | – | – | – | – | – | – | – | – | – | – | – | MIC [19]: 1.56 µg/mL; MIC [20]: 1.56 µg/mL; MIC [21]: 1.56 µg/mL; MIC [22]: 1.56 µg/mL
